Laboratory results published in ChEMBL document CHEMBL1909046, “DrugMatrix in vitro pharmacology data”.

What was measured:
[1] = molecular target: T1, Alpha-2A adrenergic receptor (Homo sapiens, UniProt P08913); type: cell membranes, Sf9, Membrane; also: in other assays of this panel Not Active means under 50% inhibition at 10 µM
T1 sequence (P08913 whole entry): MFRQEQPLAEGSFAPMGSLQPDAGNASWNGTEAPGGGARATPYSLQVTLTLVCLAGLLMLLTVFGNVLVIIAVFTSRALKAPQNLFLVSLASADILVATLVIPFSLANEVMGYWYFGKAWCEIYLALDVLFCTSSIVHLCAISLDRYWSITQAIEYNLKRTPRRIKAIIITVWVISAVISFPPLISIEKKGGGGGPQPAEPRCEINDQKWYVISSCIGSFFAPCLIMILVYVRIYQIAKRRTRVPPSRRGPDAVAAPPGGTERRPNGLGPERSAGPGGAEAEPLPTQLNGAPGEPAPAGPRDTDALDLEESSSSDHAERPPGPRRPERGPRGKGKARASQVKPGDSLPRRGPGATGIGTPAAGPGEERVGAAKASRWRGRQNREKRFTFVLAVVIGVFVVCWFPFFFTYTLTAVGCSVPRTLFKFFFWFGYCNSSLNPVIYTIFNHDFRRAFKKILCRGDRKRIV

[2] = DRUGMATRIX: Glutamate, NMDA, Phencyclidine radioligand binding (ligand: [3H] TCP); type: cell membranes, Rattus norvegicus, Wistar, Cerebral cortex, Membrane; conditions: Not Active = under 50% inhibition at 10 µM
[3] = DRUGMATRIX: Platelet-Derived Growth Factor (PDGF) radioligand binding (ligand: [125I] PDGF); type: cell-based; conditions: nih3t3; Not Active = under 50% inhibition at 10 µM
[4] = molecular target: Mitogen-activated protein kinase 3 (Homo sapiens, UniProt P27361); experiment: DRUGMATRIX: Protein Serine/Threonine Kinase, ERK1 enzyme inhibition (substrate: Myelin Basic Protein); design: species or system Escherichia coli; conditions: Not Active = under 50% inhibition at 10 µM
Sequence of Mitogen-activated protein kinase 3 (P27361 whole entry): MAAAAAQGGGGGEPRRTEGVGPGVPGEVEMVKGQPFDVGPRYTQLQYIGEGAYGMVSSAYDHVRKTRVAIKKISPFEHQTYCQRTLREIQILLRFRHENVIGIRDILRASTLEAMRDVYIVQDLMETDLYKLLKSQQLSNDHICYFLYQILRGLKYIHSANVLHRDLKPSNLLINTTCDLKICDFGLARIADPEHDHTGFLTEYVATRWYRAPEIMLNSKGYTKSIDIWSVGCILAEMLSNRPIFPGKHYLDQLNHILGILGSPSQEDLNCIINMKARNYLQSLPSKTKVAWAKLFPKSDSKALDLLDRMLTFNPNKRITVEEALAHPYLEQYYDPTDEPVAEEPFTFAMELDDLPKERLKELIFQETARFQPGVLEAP

Acetylcholinesterase = Acetylcholinesterase (Homo sapiens, UniProt P22303); experiment: DRUGMATRIX: Acetylcholinesterase enzyme inhibition (substrate: acetylthiocholine); type: cell-based, HEK293; conditions: hek293; Not Active = under 50% inhibition at 10 µM
Sequence of Acetylcholinesterase (P22303 whole entry): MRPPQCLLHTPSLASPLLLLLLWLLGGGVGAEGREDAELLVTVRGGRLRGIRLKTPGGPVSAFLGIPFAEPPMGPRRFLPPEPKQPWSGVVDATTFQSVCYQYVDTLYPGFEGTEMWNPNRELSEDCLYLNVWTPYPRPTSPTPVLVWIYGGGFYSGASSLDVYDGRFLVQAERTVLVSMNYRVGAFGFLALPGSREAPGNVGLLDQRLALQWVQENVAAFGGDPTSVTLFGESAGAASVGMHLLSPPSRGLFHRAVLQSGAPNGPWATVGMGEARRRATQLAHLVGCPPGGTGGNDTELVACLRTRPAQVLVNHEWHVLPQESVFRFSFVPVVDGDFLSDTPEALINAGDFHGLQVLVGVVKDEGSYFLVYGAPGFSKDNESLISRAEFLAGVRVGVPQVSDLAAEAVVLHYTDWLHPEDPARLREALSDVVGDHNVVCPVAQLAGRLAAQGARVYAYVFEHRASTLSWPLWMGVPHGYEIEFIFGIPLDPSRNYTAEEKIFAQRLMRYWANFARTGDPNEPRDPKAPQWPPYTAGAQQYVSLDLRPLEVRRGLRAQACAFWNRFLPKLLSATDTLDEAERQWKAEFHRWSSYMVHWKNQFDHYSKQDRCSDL

Adenosine receptor A2a = Adenosine receptor A2a (Homo sapiens, UniProt P29274); experiment: DRUGMATRIX: Adenosine A2A radioligand binding (ligand: […]); type: cell membranes, HEK293, Membrane; conditions: hek293; Not Active = under 50% inhibition at 10 µM
Sequence of Adenosine receptor A2a (P29274 whole entry): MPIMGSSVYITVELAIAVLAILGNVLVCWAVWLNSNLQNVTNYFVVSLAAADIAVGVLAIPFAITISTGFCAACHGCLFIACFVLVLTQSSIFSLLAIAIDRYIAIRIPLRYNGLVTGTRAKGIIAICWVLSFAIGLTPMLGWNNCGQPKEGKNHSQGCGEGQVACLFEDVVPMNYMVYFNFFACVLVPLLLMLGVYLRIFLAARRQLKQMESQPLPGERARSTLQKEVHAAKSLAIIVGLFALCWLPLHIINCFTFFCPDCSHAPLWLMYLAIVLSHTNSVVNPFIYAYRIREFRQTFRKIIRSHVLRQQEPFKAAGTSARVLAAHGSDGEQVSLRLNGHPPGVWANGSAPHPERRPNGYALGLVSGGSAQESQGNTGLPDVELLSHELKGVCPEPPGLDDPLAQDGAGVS

Cytochrome P450 2A6 = molecular target: T2, Cytochrome P450 2A6 (Homo sapiens, UniProt P11509); conditions: bti-tn-5b1-4; also: in other assays of this panel Not Active means under 50% inhibition at 10 µM
T2 sequence (P11509 whole entry): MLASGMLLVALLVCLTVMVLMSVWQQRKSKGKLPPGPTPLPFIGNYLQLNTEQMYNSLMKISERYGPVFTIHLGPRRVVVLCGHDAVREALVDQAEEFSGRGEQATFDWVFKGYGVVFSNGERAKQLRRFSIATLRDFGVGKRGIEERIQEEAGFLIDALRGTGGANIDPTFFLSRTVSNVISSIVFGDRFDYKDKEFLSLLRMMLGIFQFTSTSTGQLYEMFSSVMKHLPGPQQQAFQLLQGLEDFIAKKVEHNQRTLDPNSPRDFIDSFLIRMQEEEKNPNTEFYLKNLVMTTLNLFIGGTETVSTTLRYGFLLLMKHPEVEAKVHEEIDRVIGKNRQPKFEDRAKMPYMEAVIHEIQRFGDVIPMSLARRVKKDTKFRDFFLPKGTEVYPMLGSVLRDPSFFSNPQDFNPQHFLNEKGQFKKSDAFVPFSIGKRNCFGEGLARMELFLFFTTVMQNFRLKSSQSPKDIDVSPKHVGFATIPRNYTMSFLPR

c1ccc2sc(SSc3nc4ccccc4s3)nc2c1 [BENZOTHIAZYL DISULFIDE]
337 nM: Ki ([1]; read-out: Ki)
Not Active: IC50 [2] | Ki [2] | IC50 [3] | Ki [3] | IC50 [4] | IC50 (Acetylcholinesterase) | IC50 (Adenosine receptor A2a) | IC50 (Cytochrome P450 2A6) | Ki (Cytochrome P450 2A6)
899 nM: IC50 ([1]; read-out: IC50)

O=C1CN(/N=C/c2ccc([N+](=O)[O-])o2)C(=O)N1 [NITROFURANTOIN]
Not Active: IC50 ([1]; sf9) | IC50 [2] | Ki [2] | IC50 [3] | Ki [3] | IC50 [4] | IC50 (Acetylcholinesterase) | IC50 (Adenosine receptor A2a) | IC50 (Cytochrome P450 2A6) | Ki (Cytochrome P450 2A6)

NCC(CC(=O)O)c1ccc(Cl)cc1 (centres undefined) [BACLOFEN]
Not Active: IC50 ([1]; sf9) | IC50 [2] | Ki [2] | IC50 [3] | Ki [3] | IC50 [4] | IC50 (Acetylcholinesterase) | IC50 (Adenosine receptor A2a) | IC50 (Cytochrome P450 2A6) | Ki (Cytochrome P450 2A6)

OC[C@H]1O[C@@H]2O[C@H]3[C@H](O)[C@@H](O)[C@@H](O[C@H]4[C@H](O)[C@@H](O)[C@@H](O[C@H]5[C@H](O)[C@@H](O)[C@@H](O[C@H]6[C@H](O)[C@@H](O)[C@@H](O[C@H]7[C@H](O)[C@@H](O)[C@@H](O[C@H]8[C@H](O)[C@@H](O)[C@@H](O[C@H]1[C@H](O)[C@H]2O)O[C@@H]8CO)O[C@@H]7CO)O[C@@H]6CO)O[C@@H]5CO)O[C@@H]4CO)O[C@@H]3CO [BETADEX]
Not Active: IC50 ([1]; sf9) | IC50 [2] | Ki [2] | IC50 [3] | Ki [3] | IC50 [4] | IC50 (Acetylcholinesterase) | IC50 (Adenosine receptor A2a) | IC50 (Cytochrome P450 2A6) | Ki (Cytochrome P450 2A6)

CC(C)NCC(O)COc1ccc(CC(N)=O)cc1 (centres undefined) [ATENOLOL]
Not Active: IC50 ([1]; sf9) | IC50 [2] | Ki [2] | IC50 [3] | Ki [3] | IC50 [4] | IC50 (Acetylcholinesterase) | IC50 (Adenosine receptor A2a) | IC50 (Cytochrome P450 2A6) | Ki (Cytochrome P450 2A6)

Cl.NC[C@H]1CC[C@H](C(=O)Oc2ccc(CCC(=O)O)cc2)CC1 [CETRAXATE HYDROCHLORIDE]
Not Active: IC50 ([1]; sf9) | IC50 [2] | Ki [2] | IC50 [3] | Ki [3] | IC50 [4] | IC50 (Acetylcholinesterase) | IC50 (Adenosine receptor A2a) | IC50 (Cytochrome P450 2A6) | Ki (Cytochrome P450 2A6)

O=C(NCCN1CCOCC1)c1ccc(Cl)cc1 [MOCLOBEMIDE]
Not Active: IC50 ([1]; sf9) | IC50 [2] | Ki [2] | IC50 [3] | Ki [3] | IC50 [4] | IC50 (Acetylcholinesterase) | IC50 (Adenosine receptor A2a) | IC50 (Cytochrome P450 2A6) | Ki (Cytochrome P450 2A6)

CARBOXYMETHYLCELLULOSE
Not Active: IC50 ([1]; sf9) | Ki ([1]; sf9) | IC50 [2] | Ki [2] | IC50 [3] | Ki [3] | IC50 [4] | Ki [4] | IC50 (Acetylcholinesterase) | Ki (Acetylcholinesterase) | IC50 (Adenosine receptor A2a) | Ki (Adenosine receptor A2a) | IC50 (Cytochrome P450 2A6) | Ki (Cytochrome P450 2A6)

CCN(CCO)CCCC(C)Nc1ccnc2cc(Cl)ccc12 (centres undefined) [HYDROXYCHLOROQUINE]
Not Active: IC50 ([1]; sf9) | IC50 [2] | Ki [2] | IC50 [3] | Ki [3] | IC50 [4] | IC50 (Acetylcholinesterase) | IC50 (Adenosine receptor A2a) | IC50 (Cytochrome P450 2A6) | Ki (Cytochrome P450 2A6)

CCC1(c2ccccc2)C(=O)NC(=O)NC1=O [PHENOBARBITAL]
Not Active: IC50 ([1]; sf9) | IC50 [2] | Ki [2] | IC50 [3] | Ki [3] | IC50 [4] | IC50 (Acetylcholinesterase) | IC50 (Adenosine receptor A2a) | IC50 (Cytochrome P450 2A6) | Ki (Cytochrome P450 2A6)

C=CCN1CC[C@]23c4c5ccc(O)c4O[C@H]2/C(=N/N=C2\CC[C@@]4(O)[C@H]6Cc7ccc(O)c8c7[C@@]4(CCN6CC=C)[C@H]2O8)CC[C@@]3(O)[C@H]1C5 [NALOXONAZINE]
Not Active: IC50 ([1]; sf9) | IC50 [2] | Ki [2] | IC50 [3] | Ki [3] | IC50 [4] | IC50 (Acetylcholinesterase) | IC50 (Adenosine receptor A2a) | IC50 (Cytochrome P450 2A6) | Ki (Cytochrome P450 2A6)

CC(C)(C#N)c1cc(Cn2cncn2)cc(C(C)(C)C#N)c1 [ANASTROZOLE]
Not Active: IC50 ([1]; sf9) | IC50 [2] | Ki [2] | IC50 [3] | Ki [3] | IC50 [4] | IC50 (Acetylcholinesterase) | IC50 (Adenosine receptor A2a) | IC50 (Cytochrome P450 2A6) | Ki (Cytochrome P450 2A6)

OC[C@H]1O[C@@H]2O[C@H]3[C@H](O)[C@@H](O)[C@@H](O[C@H]4[C@H](O)[C@@H](O)[C@@H](O[C@H]5[C@H](O)[C@@H](O)[C@@H](O[C@H]6[C@H](O)[C@@H](O)[C@@H](O[C@H]7[C@H](O)[C@@H](O)[C@@H](O[C@H]1[C@H](O)[C@H]2O)O[C@@H]7CO)O[C@@H]6CO)O[C@@H]5CO)O[C@@H]4CO)O[C@@H]3CO [ALFADEX]
Not Active: IC50 ([1]; sf9) | IC50 [2] | Ki [2] | IC50 [3] | Ki [3] | IC50 [4] | IC50 (Acetylcholinesterase) | IC50 (Adenosine receptor A2a) | IC50 (Cytochrome P450 2A6) | Ki (Cytochrome P450 2A6)

POVIDONE
Not Active: IC50 ([1]; sf9) | Ki ([1]; sf9) | IC50 [2] | Ki [2] | IC50 [3] | Ki [3] | IC50 [4] | Ki [4] | IC50 (Acetylcholinesterase) | Ki (Acetylcholinesterase) | IC50 (Adenosine receptor A2a) | Ki (Adenosine receptor A2a) | IC50 (Cytochrome P450 2A6) | Ki (Cytochrome P450 2A6)

c1ccc2c(c1)Nc1ccccc1S2 [PHENOTHIAZINE]
Not Active: IC50 ([1]; sf9) | IC50 [2] | Ki [2] | IC50 [3] | Ki [3] | IC50 [4] | IC50 (Acetylcholinesterase) | IC50 (Adenosine receptor A2a) | IC50 (Cytochrome P450 2A6) | Ki (Cytochrome P450 2A6)

CC[C@H]1OC(=O)[C@H](C)[C@@H](O[C@H]2C[C@@](C)(OC)[C@@H](O)[C@H](C)O2)[C@H](C)[C@@H](O[C@@H]2O[C@H](C)C[C@H](N(C)C)[C@H]2O)[C@](C)(O)C[C@@H](C)C(=O)[C@H](C)[C@@H](O)[C@]1(C)O [ERYTHROMYCIN]
Not Active: IC50 ([1]; sf9) | IC50 [2] | Ki [2] | IC50 [3] | Ki [3] | IC50 [4] | IC50 (Acetylcholinesterase) | IC50 (Adenosine receptor A2a) | IC50 (Cytochrome P450 2A6) | Ki (Cytochrome P450 2A6)

NS(=O)(=O)c1cc(C(=O)O)c(NCc2ccco2)cc1Cl [FUROSEMIDE]
Not Active: IC50 ([1]; sf9) | IC50 [2] | Ki [2] | IC50 [3] | Ki [3] | IC50 [4] | IC50 (Acetylcholinesterase) | IC50 (Adenosine receptor A2a) | IC50 (Cytochrome P450 2A6) | Ki (Cytochrome P450 2A6)

COc1cc([C@@H]2c3cc4c(cc3[C@H](O)[C@H]3COC(=O)[C@H]23)OCO4)cc(OC)c1OC [PODOFILOX]
Not Active: IC50 ([1]; sf9) | IC50 [2] | Ki [2] | IC50 [3] | Ki [3] | IC50 [4] | IC50 (Acetylcholinesterase) | IC50 (Adenosine receptor A2a) | IC50 (Cytochrome P450 2A6) | Ki (Cytochrome P450 2A6)

CC(N)Cc1c[nH]c2ccc(OCc3cccs3)cc12 (centres undefined) [BW-723C86]
Not Active: IC50 ([1]; sf9) | IC50 [2] | Ki [2] | IC50 [3] | Ki [3] | IC50 [4] | IC50 (Acetylcholinesterase) | IC50 (Adenosine receptor A2a) | IC50 (Cytochrome P450 2A6) | Ki (Cytochrome P450 2A6)

O=C(O)COC(=O)Cc1ccccc1Nc1c(Cl)cccc1Cl [ACECLOFENAC]
Not Active: IC50 ([1]; sf9) | IC50 [2] | Ki [2] | IC50 [3] | Ki [3] | IC50 [4] | IC50 (Acetylcholinesterase) | IC50 (Adenosine receptor A2a) | IC50 (Cytochrome P450 2A6) | Ki (Cytochrome P450 2A6)

COC(=O)Nc1nc2ccc(Sc3ccccc3)cc2[nH]1 [FENBENDAZOLE]
Not Active: IC50 ([1]; sf9) | IC50 [2] | Ki [2] | IC50 [3] | Ki [3] | IC50 [4] | IC50 (Acetylcholinesterase) | IC50 (Adenosine receptor A2a) | IC50 (Cytochrome P450 2A6) | Ki (Cytochrome P450 2A6)
